Active and inactive are the calls of the source. The calls are words filed in the database; no cut-off is given here.
How the values were obtained:
[1] = system: Human immunodeficiency virus 1; assay: Binding affinity to HIV1 5'-[32P]ON21 RNA assessed as viral RNA cleavage at 1 mM measured after 3 and 7 hrs relative to control
[2] = system: Human immunodeficiency virus 1; assay: Binding affinity to HIV1 5'-[32P]HIV96 RNA assessed as viral RNA cleavage at 1 mM measured after 3 and 7 hrs relative to control
[3] = system: Human immunodeficiency virus 1; assay: Binding affinity to HIV1 5'-[32P]HIV96 RNA assessed as viral RNA cleavage rate constant at 1 mM
[4] = system: Human immunodeficiency virus 1; assay: Binding affinity to HIV1 5'-[32P]HIV96 RNA assessed as time of half viral RNA cleavage of at 1 mM
[5] = system: Human immunodeficiency virus 1; assay: Binding affinity to HIV1 5'-[32P]ON21 RNA in cacodylate buffer assessed as RNA cleavage rate constant for 3 hrs at pH 6.2 to 7.2
[6] = system: Human immunodeficiency virus 1; assay: Binding affinity to HIV1 5'-[32P]ON21 RNA in Tris-Hcl buffer assessed as RNA cleavage rate constant for 5 hrs at pH 7.5
[7] = system: MDCK; assay: Cytotoxicity against MDCK cells assessed as reduction in cell viability after 24 hrs by MTT assay; format: cell-based; conditions: Canis lupus familiaris
[8] = system: Influenza A virus; assay: (§1) Antiviral activity against Influenza A virus (A/WSN/33(H1N1)) infected in MDCK cells assessed as viral titer at 1 mM compound preincubated with virus for 24 hrs followed by host cell infection measured after 18 hrs by AEC staining based inverted microscopic analysis (reference value: 5.2 log10 FFU/ml); format: functional, A/WSN/1933(H1N1)
[9] = system: Influenza A virus; assay: as §1, with “at 0.1” for “at 1”; format: functional, A/WSN/1933(H1N1)
[10] = system: Influenza A virus; assay: Antiviral activity against Influenza A virus (A/WSN/33(H1N1)) infected in MDCK cells assessed as reduction in viral titer at 0.001 to 4 mM compound preincubated with virus for 24 hrs followed by host cell infection measured after 18 hrs by AEC staining based inverted microscopic analysis relative to control; format: functional, A/WSN/1933(H1N1)
[11] = system: Influenza A virus; assay: Antiviral activity against Influenza A virus (A/WSN/33(H1N1)) infected in MDCK cells assessed as reduction in viral titer at 4 mM compound preincubated with virus for 24 hrs followed by host cell infection measured after 18 hrs by AEC staining based inverted microscopic analysis; format: functional, A/WSN/1933(H1N1)
[12] = system: Influenza A virus; assay: Antiviral activity against Influenza A virus (A/WSN/33(H1N1)) infected in MDCK cells assessed as reduction in viral titer compound preincubated with virus for 24 hrs followed by host cell infection measured after 24 hrs by AEC staining based inverted microscopic analysis; format: functional, organism-based; conditions: A/WSN/1933(H1N1)
[13] = system: Influenza A virus; assay: as §1, with “at 0.2” for “at 1”; format: functional, A/WSN/1933(H1N1)
[14] = system: Influenza A virus; assay: as §1, with “at 2” for “at 1”; format: functional, A/WSN/1933(H1N1)
[15] = system: Influenza A virus; assay: as §1, with “at 4” for “at 1”; format: functional, A/WSN/1933(H1N1)
[16] = system: Influenza A virus; assay: Antiviral activity against Influenza A virus (A/WSN/33(H1N1)) infected in MDCK cells assessed as reduction in viral titer at 2 mM compound preincubated with virus for 24 hrs followed by host cell infection measured after 18 hrs by AEC staining based inverted microscopic analysis relative to control; format: functional, A/WSN/1933(H1N1)
[17] = system: Influenza A virus; assay: as §1, with “at 0.5” for “at 1”; format: functional, A/WSN/1933(H1N1)

| Compound | Activity [1] | Activity [2] | K [3] | TIME [4] | Activity [5] | Activity [6] | IC50 [7] | Activity [8] | Activity [9] | fold change (FC) [10] | fold change (FC) [11] | Activity [12] | Activity [13] | Activity [14] | Activity [15] | fold change (FC) [16] | Activity [17] |
| --- | --- | --- | --- | --- | --- | --- | --- | --- | --- | --- | --- | --- | --- | --- | --- | --- | --- |
| NCCCC[C@H](N)C(=O)NCCCCCCCCCCCCNC(=O)[C@@H](N)CCCCN | 8% | 24% | 0.07 h⁻¹ | 7 h |  |  |  |  |  |  |  |  |  |  |  |  |  |
| NCCCC[C@H](NC(=O)CCc1c[nH]cn1)C(=O)NCCCOCCCCOCCCNC(=O)[C@H](CCCCN)NC(=O)CCc1c[nH]cn1 | 29% | 44% | 0.076 h⁻¹ | 8 h | inactive | Active |  |  |  |  |  |  |  |  |  |  |  |
| NCCCC[C@H](NCCCCCNC(=O)[C@@H](N)CCC(=O)O)C(=O)NCCCCCCCCCCCCNC(=O)[C@H](CCCCN)NC(=O)CCCCCNC(=O)[C@@H](N)CCC(=O)O | 35% | 55% | 0.254 h⁻¹ | 3 h | Active |  | 500 µM | 3.7 log10FFU/ml | 3.8 log10FFU/ml | 1.5 | 1.5 | Dose-dependent effect |  |  |  |  |  |
| NCCCC[C@H](N)C(=O)NCCCOCCCCOCCCNC(=O)[C@@H](N)CCCCN | 8% | 19% | 0.011 h⁻¹ | 20 h |  |  |  |  |  |  |  |  |  |  |  |  |  |
| N[C@@H](CCC(=O)OCc1ccccc1)C(=O)NCCCCCCCCCCCCNC(=O)[C@@H](N)CCC(=O)OCc1ccccc1 | 45% | 18% | 0.053 h⁻¹ | 9 h |  |  | > 5000 µM |  |  |  |  | Dose-dependent effect | 4.4 log10FFU/ml | 2.3 log10FFU/ml | <1 log10FFU/ml |  |  |
| N[C@@H](CO)C(=O)NCCCOCCCCOCCCNC(=O)[C@@H](N)CO | 3% | 6% | 0.002 h⁻¹ | > 24 h |  |  |  |  |  |  |  |  |  |  |  |  |  |
| NCCCC[C@H](NC(=O)CCCCCNC(=O)[C@@H](N)CCC(=O)O)C(=O)NCCCOCCCCOCCCNC(=O)[C@H](CCCCN)NC(=O)CCCCCNC(=O)[C@@H](N)CCC(=O)O | 33% | 57% | 0.082 h⁻¹ | 6 h |  |  | 200 µM |  |  | 1.5 |  | Dose-dependent effect | 4.9 log10FFU/ml | 2.2 log10FFU/ml |  | 3 |  |
| N=C(N)NCCC[C@H](N)C(=O)NCCCOCCCCOCCCNC(=O)[C@@H](N)CCCNC(=N)N | 25% | 38% | 0.062 h⁻¹ | 10 h |  |  |  |  |  |  |  |  |  |  |  |  |  |
| N[C@@H](CCC(=O)O)C(=O)NCCCCCC(=O)N[C@@H](CO)C(=O)NCCCOCCCCOCCCNC(=O)[C@H](CO)NC(=O)CCCCCNC(=O)[C@@H](N)CCC(=O)O | 18% | 23% | 0.033 h⁻¹ | 17 h |  |  |  |  |  |  |  |  |  |  |  |  |  |
| N[C@@H](CO)C(=O)NCCCCCCCCCCCCNC(=O)[C@@H](N)CO | 13% | 28% | 0.079 h⁻¹ | 6 h |  |  |  |  |  |  |  |  |  |  |  |  |  |
| O=C(/C=C/c1c[nH]cn1)N[C@@H](CCCCNC(=O)OCc1ccccc1Cl)C(=O)NCCCOCCCCOCCCNC(=O)[C@H](CCCCNC(=O)OCc1ccccc1Cl)NC(=O)/C=C/c1c[nH]cn1 | 42% | 52% | 0.11 h⁻¹ | 7 h |  |  | 700 µM |  |  |  |  | Dose-dependent effect | 4.5 log10FFU/ml | 4 log10FFU/ml |  |  |  |
| NCCCC[C@H](N)C(=O)NCCCCCC(=O)N[C@@H](CO)C(=O)NCCCOCCCCOCCCNC(=O)[C@H](CO)NC(=O)CCCCCNC(=O)[C@@H](N)CCCCN | 11% | 10% | 0.005 h⁻¹ | > 24 h |  |  |  |  |  |  |  |  |  |  |  |  |  |
| N[C@@H](CCC(=O)O)C(=O)NCCCCCCCCCCCCNC(=O)[C@@H](N)CCC(=O)O | 39% | 60% | 0.276 h⁻¹ | 2 h | Active |  | > 5000 µM | <1 log10FFU/ml |  | 1.5 |  | Dose-dependent effect | 4.8 log10FFU/ml |  |  |  | 2.1 log10FFU/ml |
